Laboratory results: ChEMBL document CHEMBL2303647, “Data associated with the publication PLoS ONE, 8(3), e57888, (2013) PMID: 23505445. Compounds: GSK PKIS; Assays: NIH NCATS”

Columns and labels:
[1] = target: T1, Coelenterazine h 2-monooxygenase (Renilla reniformis, UniProt P27652)
T1 sequence (P27652 whole entry): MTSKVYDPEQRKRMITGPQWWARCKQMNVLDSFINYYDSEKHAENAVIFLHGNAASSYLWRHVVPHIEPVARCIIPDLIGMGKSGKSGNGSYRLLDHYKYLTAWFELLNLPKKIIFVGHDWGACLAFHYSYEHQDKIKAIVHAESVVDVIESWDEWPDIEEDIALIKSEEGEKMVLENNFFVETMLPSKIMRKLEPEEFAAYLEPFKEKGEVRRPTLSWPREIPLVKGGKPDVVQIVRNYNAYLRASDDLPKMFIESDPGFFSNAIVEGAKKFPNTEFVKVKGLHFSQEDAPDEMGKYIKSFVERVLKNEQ
Description: GSK_PKIS: Inhibition of Sea Pansy Luciferase (Data from PubChem: AID 652015) [NIH NCATS]

[2] = target: Luciferin 4-monooxygenase (Photinus pyralis, UniProt P08659)
Luciferin 4-monooxygenase, sequence (P08659 whole entry): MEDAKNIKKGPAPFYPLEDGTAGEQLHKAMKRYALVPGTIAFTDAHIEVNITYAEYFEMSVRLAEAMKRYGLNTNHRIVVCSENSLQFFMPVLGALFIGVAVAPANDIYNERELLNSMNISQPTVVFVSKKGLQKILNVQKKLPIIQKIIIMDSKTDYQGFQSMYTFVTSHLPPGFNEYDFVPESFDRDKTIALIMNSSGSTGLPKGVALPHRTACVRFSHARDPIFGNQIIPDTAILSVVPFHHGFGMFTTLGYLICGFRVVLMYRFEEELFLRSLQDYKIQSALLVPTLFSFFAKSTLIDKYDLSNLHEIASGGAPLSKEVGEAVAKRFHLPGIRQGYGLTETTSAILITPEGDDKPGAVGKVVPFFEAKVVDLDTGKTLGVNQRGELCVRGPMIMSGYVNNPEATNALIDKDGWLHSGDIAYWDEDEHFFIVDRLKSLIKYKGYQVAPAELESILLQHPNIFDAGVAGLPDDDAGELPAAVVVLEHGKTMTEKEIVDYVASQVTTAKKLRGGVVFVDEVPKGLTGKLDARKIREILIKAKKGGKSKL
Description: GSK_PKIS: Inhibition of Firefly Luciferase (Data from PubChem: AID 652016) [NIH NCATS]

| Structure (SMILES) | AC50 ([1]; read-out: AC50) | AC50 ([2]; read-out: AC50) | AC50 [1] | AC50 [2] |
| --- | --- | --- | --- | --- |
| COc1cc2ncnc(Nc3ccc4c(cnn4Cc4ccccc4)c3)c2cc1OC.Cl [GW282449A] |  |  | Phenotype: Inactive; Curve_Description: None | Phenotype: Inactive; Curve_Description: None |
| NS(=O)(=O)c1ccc(N/N=C2\C(=O)Nc3ccc(C(=O)NCCCn4ccnc4)cc32)cc1 [GW290597X] | 18.3 µM |  |  | Phenotype: Inactive; Curve_Description: None |
| COc1ccc2[nH]c3c4[nH]c5ccc(OC)cc5c4c4c(c3c2c1)C(=O)NC4=O [GW296115X] | 25.9 µM |  |  | Phenotype: Inactive; Curve_Description: None |
| CC(C)c1ccc2c(c1)NC(=O)/C2=N/Nc1ccc(S(N)(=O)=O)cc1 [GW300653X] |  |  | Phenotype: Inactive; Curve_Description: None | Phenotype: Inactive; Curve_Description: None |
| NS(=O)(=O)c1ccc(N/N=C2\C(=O)Nc3ccc(C(=O)NCc4ccncc4)cc32)cc1 [GW300657X] |  |  | Phenotype: Inactive; Curve_Description: None | Phenotype: Inactive; Curve_Description: None |
| NS(=O)(=O)c1ccc(N/N=C2\C(=O)Nc3ccc(C(=O)NCCc4c[nH]cn4)cc32)cc1 [GW300660X] | 16.3 µM |  |  | Phenotype: Inactive; Curve_Description: None |
| O=C1Nc2ccc(I)cc2C1=Cc1cc(Br)c(O)c(Br)c1 [GW305074X] | 20.6 µM |  |  | Phenotype: Inactive; Curve_Description: None |
| Cl.NS(=O)(=O)c1ccc(N/N=C2\C(=O)Nc3cccc(CCc4ccncc4)c32)cc1 [GW352430A] |  |  | Phenotype: Inactive; Curve_Description: None | Phenotype: Inactive; Curve_Description: None |
| COC(=O)c1cncc(/C=C/c2c(C)cc(O)cc2C)c1 [GW406731X] |  |  | Phenotype: Inactive; Curve_Description: None | Phenotype: Inactive; Curve_Description: None |
| COc1cc2ncnc(Nc3ccc(C)c(O)c3)c2cc1OC.Cl [GW410563A] |  |  | Phenotype: Inactive; Curve_Description: None | Phenotype: Inactive; Curve_Description: None |
| CN(C)c1ccc2c(c1)/C(=C/Nc1ccc(S(N)(=O)=O)cc1)C(=O)N2 [GW416469X] | 5.8 µM |  |  | Phenotype: Inactive; Curve_Description: None |
| CC(C)COC(=O)c1ccc2c(c1)/C(=C/Nc1ccc(S(N)(=O)=O)cc1)C(=O)N2 [GW416981X] |  |  | Phenotype: Inactive; Curve_Description: None | Phenotype: Inactive; Curve_Description: None |
| Cc1cc(O)cc(C)c1/C=C/c1cncc(C(=O)N(C)C)c1 [GW427984X] |  |  | Phenotype: Inactive; Curve_Description: None | Phenotype: Inactive; Curve_Description: None |
| O=C1Nc2ccc(-c3cccnc3)cc2C1=Cc1cc(Br)c(O)c(Br)c1 [GW429374A] | 18.3 µM | 32.6 µM |  |  |
| CNC(=O)Oc1cc(C)c(/C=C/c2cncc(C(=O)NC)c2)c(C)c1 [GW432441X] |  | 29.1 µM | Phenotype: Inactive; Curve_Description: None |  |
| Cc1cc(O)cc(C)c1/C=C/c1cncc(C(N)=O)c1 [GW435821X] |  |  | Phenotype: Inactive; Curve_Description: None | Phenotype: Inactive; Curve_Description: None |
| Cc1cc(O)cc(C)c1/C=C/c1cncc(C(=O)OC(C)(C)C)c1 [GW439255X] |  |  | Phenotype: Inactive; Curve_Description: None | Phenotype: Inactive; Curve_Description: None |
| Cn1cc(C=C2C(=O)Nc3cccnc32)c2ccccc21 [GW441756X] | 20.6 µM | 14.6 µM |  |  |
| CNC(=O)c1cncc(/C=C/c2ccccc2C)c1 [GW445015X] |  |  | Phenotype: Inactive; Curve_Description: None | Phenotype: Inactive; Curve_Description: None |
| CNC(=O)c1cncc(/C=C/c2ccccc2Cl)c1 [GW445017X] |  | 9.19 µM | Phenotype: Inactive; Curve_Description: None |  |
| CS(=O)(=O)CCNCc1ccc(-c2ccc3ncnc(Nc4ccc(OCc5ccccc5)cc4)c3c2)o1.Cl [GW458787A] |  | 18.3 µM | Phenotype: Inactive; Curve_Description: None |  |
| CS(=O)(=O)CCNCc1nc(-c2ccc3ncnc(Nc4ccc(F)c(Cl)c4)c3c2)cs1.Cl [GW461104A] |  |  | Phenotype: Inactive; Curve_Description: None | Phenotype: Inactive; Curve_Description: None |
| COc1cc(C=NNc2ncnc3c2cnn3-c2ccccc2)ccc1O [GW513184X] |  |  | Phenotype: Inactive; Curve_Description: None | Phenotype: Inactive; Curve_Description: None |
| CCn1c(-c2nonc2N)nc2ccccc21 [GW549034X] |  |  | Phenotype: Inactive; Curve_Description: None | Phenotype: Inactive; Curve_Description: None |
| CS(=O)(=O)CCNCc1ccc(-c2ccc3ncnc(Nc4ccc(OCc5cccc(C(F)(F)F)c5)cc4)c3c2)o1.Cl [GW567808A] |  |  | Phenotype: Activator; Curve_Description: None | Phenotype: Inactive; Curve_Description: None |
| Nc1nccc(-c2c(-c3ccc(F)cc3)nn3cc(C(F)(F)F)ccc23)n1 [GW568326X] |  |  | Phenotype: Inactive; Curve_Description: None | Phenotype: Inactive; Curve_Description: None |

Second part, led by results:

| AC50 ([1]; read-out: AC50) | AC50 ([2]; read-out: AC50) | Structure (SMILES) | AC50 [1] | AC50 [2] |
| --- | --- | --- | --- | --- |
| 36.6 µM | 41.1 µM | NS(=O)(=O)c1ccc(N/N=C2\C(=O)Nc3ccc(Cl)cc32)cc1 [GW280670X] |  |  |
| 18.3 µM |  | Cc1cccc2c1NC(=O)/C2=N\Nc1ccc(S(N)(=O)=O)cc1 [GW282536X] |  | Phenotype: Inactive; Curve_Description: None |
| 23.1 µM |  | CN(C)c1cc2c(Nc3ccc4c(cnn4Cc4ccccc4)c3)ncnc2cn1 [GW282974X] |  | Phenotype: Inactive; Curve_Description: None |
|  | 29.1 µM | c1ccc(COc2ccc(Nc3ncnc4ccc(-c5ccco5)cc34)cc2)cc1 [GW284372X] | Phenotype: Inactive; Curve_Description: None |  |
|  | 4.11 µM | O=C1Nc2ccccc2/C1=C/Nc1ccc2[nH]c(=O)[nH]c2c1 [GW284408X] | Phenotype: Inactive; Curve_Description: None |  |
| 32.6 µM |  | NS(=O)(=O)c1ccc(N/C=C2\C(=O)Nc3ccc4ncsc4c32)cc1 [GW297361X] |  | Phenotype: Inactive; Curve_Description: None |
|  | 41.1 µM | CC(C)(CO)CNC(=O)c1ccc2c(c1)/C(=N/Nc1ccc(S(N)(=O)=O)cc1)C(=O)N2 [GW301784X] | Phenotype: Inactive; Curve_Description: None |  |
|  | 18.3 µM | O=C1Nc2ccccc2/C1=C/Nc1ccc(-n2cncn2)cc1 [GW301789X] | Phenotype: Inactive; Curve_Description: None |  |
| 18.3 µM | 16.3 µM | CN(C)c1cc2c(Nc3ccc4nc(Cc5ccccc5)[nH]c4c3)ncnc2cn1 [GW301888X] |  |  |
| 23.1 µM | 29.1 µM | NS(=O)(=O)c1ccc(N/N=C2\C(=O)Nc3ccc4ncccc4c32)cc1 [GW305178X] |  |  |
|  | 3.66 µM | C/C(Nc1ccc(S(N)(=O)=O)cc1)=C1/C(=O)Nc2ccccc21 [GW335962X] | Phenotype: Inactive; Curve_Description: None |  |
| 20.6 µM |  | CC(C)=Cc1cccc2c1/C(=N/Nc1ccc(S(N)(=O)=O)cc1)C(=O)N2 [GW396574X] |  | Phenotype: Inactive; Curve_Description: None |
| 13 µM | 20.6 µM | COC(=O)c1ccc2c(c1)C(=Cc1cc(Br)c(O)c(Br)c1)C(=O)N2 [GW405841X] |  |  |
| 16.3 µM | 18.3 µM | O=C1Nc2ccc(C(=O)c3ccco3)cc2C1=Cc1cc(Cl)c(O)c(Cl)c1 [GW406108X] |  |  |
| 20.6 µM | 29.1 µM | Nc1nc(-c2ccc3c(c2)C(=Cc2cc(Br)c(O)c(Br)c2)C(=O)N3)cs1 [GW407323A] |  |  |
| 23.1 µM | 1.16 µM | Fc1ccc(-c2nn3ccccc3c2-c2ccncc2)cc1 [GW434756X] |  |  |
| 23.1 µM | 20.6 µM | Cc1ccc(O)cc1Nc1ccnc2cc(-c3ccccn3)ccc12 [GW440139A] |  |  |
|  | 29.1 µM | Cc1cc(O)cc(C)c1/C=C/c1cncc(-c2nn[nH]n2)c1.Cl [GW441806A] | Phenotype: Inactive; Curve_Description: None |  |
| 8.19 µM | 41.1 µM | COc1ccccc1-c1cc(/C=C2\C(=O)Nc3ncc(Br)cc32)cc(Br)c1O [GW442130X] |  |  |
|  | 20.6 µM | CNC(=O)c1cncc(/C=C/c2c(C)cccc2C)c1 [GW445012X] | Phenotype: Inactive; Curve_Description: None |  |
| 23.1 µM | 16.3 µM | CNC(=O)c1cncc(/C=C/c2c(Cl)cccc2Cl)c1 [GW445014X] |  |  |
|  | 36.6 µM | CCc1cccc(CC)c1/C=C/c1cncc(C(=O)NC)c1 [GW450241X] | Phenotype: Inactive; Curve_Description: None |  |
|  | 20.6 µM | Cc1cc(-c2ccco2)cc(C)c1/C=C/c1cncc(-c2nn[nH]n2)c1.Cl [GW458344A] | Phenotype: Inactive; Curve_Description: None |  |
| 32.6 µM |  | Cc1cc(-c2ccccn2)cc(C)c1/C=C/c1cncc(-c2nn[nH]n2)c1.Cl [GW459057A] |  | Phenotype: Inactive; Curve_Description: None |
|  | 0.259 µM | c1ccc(Nc2ncc(-c3ccccc3)o2)cc1 [GW549390X] | Phenotype: Inactive; Curve_Description: None |  |
|  | 41.1 µM | Cc1ccc(O)cc1Nc1ccnc2ccc(S(C)(=O)=O)cc12 [GW559768X] | Phenotype: Inactive; Curve_Description: None |  |
|  | 46.1 µM | N#Cc1ccc2c(-c3ccnc(NC4CC4)n3)c(-c3ccc(F)cc3)nn2c1 [GW561436X] | Phenotype: Inactive; Curve_Description: None |  |
|  | 13 µM | CS(=O)(=O)CCNCc1coc(-c2ccc3ncnc(Nc4ccc(OCc5ccccc5)cc4)c3c2)c1.Cl [GW566221A] | Phenotype: Inactive; Curve_Description: None |  |
|  | 20.6 µM | CS(=O)(=O)CCNCc1ccoc1-c1ccc2ncnc(Nc3ccc(OCc4ccccc4)cc3)c2c1.Cl [GW568377A] | Phenotype: Inactive; Curve_Description: None |  |
